Values of other authors as cited in PMC11791199 (Scientific Reports, 2025).
Starred links: 1 amine or outer side, 2 acyl side, 3 side chain; linkers in the order of their positions; H or OH if unused. Positions of bridges follow the written chain, without caps; N, C: chain ends. Non-standard residues stand in square brackets, D forms with d. Residues, ends and D or L forms follow the SMILES beside them. *: point of attachment. Phe(3R-OH) = O=C([C@@H](N[*:1])[C@H](O[*:3])c1ccccc1)[*:2]; NMeTrp(4-OMe) = CN[C@@H](Cc1c[nH]c2cccc(OC)c12)C(=O)O; NMeaIle = CC[C@@H](C)[C@H](NC)C(=O)O; NMe2Val = CC(C)[C@@H](C(=O)*)N(C)C; NMeT = CN[C@H](C(=O)O)[C@@H](C)O; NMeL = CN[C@@H](CC(C)C)C(=O)O; NMeV = CN[C@H](C(=O)O)C(C)C

Experiments:
Details in all cases: cited from earlier work
ClpC1 NTD = ClpC1 NTD (Mycobacterium tuberculosis, UniProt P9WPC9)
Sequence of ClpC1 NTD (P9WPC9 2-144): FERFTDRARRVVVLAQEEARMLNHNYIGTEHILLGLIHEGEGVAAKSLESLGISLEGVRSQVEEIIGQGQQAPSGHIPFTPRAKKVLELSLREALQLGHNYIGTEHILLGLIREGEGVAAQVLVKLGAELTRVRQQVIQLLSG

ClpC1P1P2 = ClpC1P1P2 (Mycobacterium tuberculosis, UniProt P9WPC9)
Sequence of ClpC1P1P2 (P9WPC9 whole entry): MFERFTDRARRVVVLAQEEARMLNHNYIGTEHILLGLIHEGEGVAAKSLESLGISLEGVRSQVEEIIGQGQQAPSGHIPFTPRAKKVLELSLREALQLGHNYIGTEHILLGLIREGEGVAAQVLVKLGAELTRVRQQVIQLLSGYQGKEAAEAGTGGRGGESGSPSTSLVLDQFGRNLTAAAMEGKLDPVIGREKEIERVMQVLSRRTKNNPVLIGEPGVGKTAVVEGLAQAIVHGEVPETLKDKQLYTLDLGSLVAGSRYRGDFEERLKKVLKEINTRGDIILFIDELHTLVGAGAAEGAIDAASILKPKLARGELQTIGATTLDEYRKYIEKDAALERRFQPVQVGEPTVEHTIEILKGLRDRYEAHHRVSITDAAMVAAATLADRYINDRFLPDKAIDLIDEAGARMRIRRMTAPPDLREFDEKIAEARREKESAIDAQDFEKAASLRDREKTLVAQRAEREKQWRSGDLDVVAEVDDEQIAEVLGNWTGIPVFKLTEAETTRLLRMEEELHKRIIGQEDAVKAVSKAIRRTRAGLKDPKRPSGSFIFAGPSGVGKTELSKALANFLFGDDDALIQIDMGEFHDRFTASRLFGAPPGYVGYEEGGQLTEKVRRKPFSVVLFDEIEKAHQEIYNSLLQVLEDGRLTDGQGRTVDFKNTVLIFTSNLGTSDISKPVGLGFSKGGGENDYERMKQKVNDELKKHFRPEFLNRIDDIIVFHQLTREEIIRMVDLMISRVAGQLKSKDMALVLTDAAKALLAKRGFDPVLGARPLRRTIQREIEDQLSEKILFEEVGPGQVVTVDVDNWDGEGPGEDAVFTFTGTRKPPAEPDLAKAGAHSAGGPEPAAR

ClpC1 = ClpC1 (Mycobacterium tuberculosis, UniProt P9WPC9)
Sequence of ClpC1 (P9WPC9 whole entry): as above

tuberculosis = system: tuberculosis

Compound | affinity for ClpC1-NTD (ClpC1 NTD) | effect on FITC-casein degradation (ClpC1P1P2) | effect on ATPase activity (ClpC1) | MIC value, times lower than that of rifampicin or isoniazid (tuberculosis)
cyclomarin | nM affinity | very modest effects | very modest effects | 
CC[C@@H](C)[C@@H](C(=O)N[C@@H]1C(=O)N(C)[C@@H]([C@@H](C)O)C(=O)N[C@@H](C(C)C)C(=O)N(C)[C@@H](CC(C)C)C(=O)N[C@@H](C(C)C)C(=O)N(C)[C@@H](C(C)C)C(=O)N(C)[C@@H](Cc2c[nH]c3cccc(OC)c23)C(=O)N[C@@H](C(C)C)C(=O)N[C@@H]([C@H](O)c2ccccc2)C(=O)N[C@@H](C(C)C)C(=O)O[C@@H]1C)N(C)C(=O)[C@@H](NC(=O)[C@H](C(C)C)N(C)C)C(C)C [ecumicin] (NMe2Val-V[NMeaIle]T[NMeT]V[NMeL]V[NMeV][NMeTrp(4-OMe)]V[Phe(3R-OH)]V; ester 3-C) |  | inhibitor | strong activator | 50 times
